Reference: patent US6362174B1, “Reduced dipeptide analogues as calcium channel antagonitsts” (Warner-Lambert Company, priority 1998, dated 2002)
Where a name gives a salt, the structure may show the parent alone. One block for each molecule: values may come before it.

What was measured:
N-type Ca2+ channel = target: T1, N-type Ca2+ channel (Homo sapiens, UniProt Q00975); experiment: Measurement of N-type Ca2+ channel blocking potencies in IMR32 cells using the fluorescent Ca2+ indicator Indo-1; type: cell-based; settings: IMR-32 cells; for IC50: K+ depolarization, 5 μM nitrendipine to block L-type channels
T1 construct: host or cells: IMR-32 human neuroblastoma cells, differentiated with dibutyryl cAMP and bromodeoxyuridine
T1 sequence (Q00975 whole entry): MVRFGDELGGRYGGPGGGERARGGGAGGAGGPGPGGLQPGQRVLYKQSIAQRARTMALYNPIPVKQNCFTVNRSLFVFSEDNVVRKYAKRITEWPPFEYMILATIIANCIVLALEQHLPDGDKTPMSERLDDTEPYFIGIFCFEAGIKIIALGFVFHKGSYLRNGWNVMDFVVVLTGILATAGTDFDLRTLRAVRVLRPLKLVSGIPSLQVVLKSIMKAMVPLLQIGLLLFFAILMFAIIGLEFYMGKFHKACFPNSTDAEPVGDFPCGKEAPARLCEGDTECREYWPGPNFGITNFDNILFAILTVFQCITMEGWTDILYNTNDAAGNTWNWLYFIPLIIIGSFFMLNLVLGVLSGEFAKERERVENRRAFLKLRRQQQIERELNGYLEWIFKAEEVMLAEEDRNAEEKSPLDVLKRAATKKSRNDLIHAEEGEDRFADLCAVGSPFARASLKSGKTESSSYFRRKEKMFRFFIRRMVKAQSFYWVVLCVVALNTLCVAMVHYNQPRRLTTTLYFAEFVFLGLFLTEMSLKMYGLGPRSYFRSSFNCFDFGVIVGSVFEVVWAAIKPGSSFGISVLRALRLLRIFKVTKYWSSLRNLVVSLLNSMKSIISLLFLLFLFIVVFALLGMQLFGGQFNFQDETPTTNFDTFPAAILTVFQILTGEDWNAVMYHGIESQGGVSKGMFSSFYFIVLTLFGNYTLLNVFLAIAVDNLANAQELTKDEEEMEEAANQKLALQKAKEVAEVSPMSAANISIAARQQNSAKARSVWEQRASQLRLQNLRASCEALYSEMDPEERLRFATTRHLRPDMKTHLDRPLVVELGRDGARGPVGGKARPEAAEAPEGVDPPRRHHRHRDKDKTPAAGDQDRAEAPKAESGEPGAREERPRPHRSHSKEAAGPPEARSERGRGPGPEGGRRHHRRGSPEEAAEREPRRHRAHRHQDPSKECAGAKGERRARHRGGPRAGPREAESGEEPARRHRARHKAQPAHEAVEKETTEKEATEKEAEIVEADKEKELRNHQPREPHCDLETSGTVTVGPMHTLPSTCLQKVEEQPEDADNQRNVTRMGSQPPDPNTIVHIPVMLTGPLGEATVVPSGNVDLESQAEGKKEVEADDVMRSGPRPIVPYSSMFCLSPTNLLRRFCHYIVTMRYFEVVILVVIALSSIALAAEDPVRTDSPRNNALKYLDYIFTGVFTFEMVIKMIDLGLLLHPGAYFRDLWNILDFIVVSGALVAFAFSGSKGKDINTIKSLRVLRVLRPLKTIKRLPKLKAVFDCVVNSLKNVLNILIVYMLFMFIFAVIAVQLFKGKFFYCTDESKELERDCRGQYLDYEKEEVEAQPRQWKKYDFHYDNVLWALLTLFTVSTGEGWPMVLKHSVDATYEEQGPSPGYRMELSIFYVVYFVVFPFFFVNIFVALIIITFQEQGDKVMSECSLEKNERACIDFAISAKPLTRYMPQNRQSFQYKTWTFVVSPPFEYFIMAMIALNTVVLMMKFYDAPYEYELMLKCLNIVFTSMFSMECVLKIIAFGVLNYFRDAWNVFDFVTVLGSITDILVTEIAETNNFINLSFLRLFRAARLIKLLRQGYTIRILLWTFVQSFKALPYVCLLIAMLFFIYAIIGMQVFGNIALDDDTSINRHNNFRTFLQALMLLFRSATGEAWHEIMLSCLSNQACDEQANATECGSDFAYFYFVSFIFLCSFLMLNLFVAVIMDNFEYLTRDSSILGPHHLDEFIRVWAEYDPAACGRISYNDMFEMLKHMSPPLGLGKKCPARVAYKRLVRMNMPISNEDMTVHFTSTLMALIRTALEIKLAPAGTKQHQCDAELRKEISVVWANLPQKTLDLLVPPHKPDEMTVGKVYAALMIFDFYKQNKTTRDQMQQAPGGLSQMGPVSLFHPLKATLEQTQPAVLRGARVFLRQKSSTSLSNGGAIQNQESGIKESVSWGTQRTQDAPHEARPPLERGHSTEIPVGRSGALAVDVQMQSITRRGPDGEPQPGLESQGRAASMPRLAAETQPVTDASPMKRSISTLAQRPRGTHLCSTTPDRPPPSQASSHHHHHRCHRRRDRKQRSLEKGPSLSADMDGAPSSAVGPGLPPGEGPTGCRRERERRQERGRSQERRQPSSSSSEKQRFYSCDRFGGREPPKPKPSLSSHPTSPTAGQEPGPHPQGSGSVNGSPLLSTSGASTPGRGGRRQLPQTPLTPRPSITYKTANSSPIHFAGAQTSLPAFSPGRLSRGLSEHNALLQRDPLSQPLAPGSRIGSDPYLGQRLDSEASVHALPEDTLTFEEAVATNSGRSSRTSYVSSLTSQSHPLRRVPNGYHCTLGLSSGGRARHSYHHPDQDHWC
T1 sequence (Q02641 whole entry partner): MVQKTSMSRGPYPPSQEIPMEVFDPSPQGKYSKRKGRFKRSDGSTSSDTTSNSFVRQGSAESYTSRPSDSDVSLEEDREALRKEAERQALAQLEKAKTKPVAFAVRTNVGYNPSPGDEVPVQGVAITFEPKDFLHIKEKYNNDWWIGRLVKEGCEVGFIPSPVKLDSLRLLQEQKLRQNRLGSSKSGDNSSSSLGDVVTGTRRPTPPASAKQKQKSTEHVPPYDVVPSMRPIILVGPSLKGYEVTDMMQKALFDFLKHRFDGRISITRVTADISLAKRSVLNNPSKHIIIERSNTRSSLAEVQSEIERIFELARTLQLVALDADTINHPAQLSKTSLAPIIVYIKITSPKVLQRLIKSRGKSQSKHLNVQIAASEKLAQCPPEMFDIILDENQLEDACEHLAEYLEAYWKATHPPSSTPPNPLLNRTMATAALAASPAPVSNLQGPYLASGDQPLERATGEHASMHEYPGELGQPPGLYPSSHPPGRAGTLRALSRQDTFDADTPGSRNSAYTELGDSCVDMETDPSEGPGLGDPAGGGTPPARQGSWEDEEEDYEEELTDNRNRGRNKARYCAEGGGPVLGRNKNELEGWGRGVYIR
T1 sequence (P54289 25-956 partner limits assumed): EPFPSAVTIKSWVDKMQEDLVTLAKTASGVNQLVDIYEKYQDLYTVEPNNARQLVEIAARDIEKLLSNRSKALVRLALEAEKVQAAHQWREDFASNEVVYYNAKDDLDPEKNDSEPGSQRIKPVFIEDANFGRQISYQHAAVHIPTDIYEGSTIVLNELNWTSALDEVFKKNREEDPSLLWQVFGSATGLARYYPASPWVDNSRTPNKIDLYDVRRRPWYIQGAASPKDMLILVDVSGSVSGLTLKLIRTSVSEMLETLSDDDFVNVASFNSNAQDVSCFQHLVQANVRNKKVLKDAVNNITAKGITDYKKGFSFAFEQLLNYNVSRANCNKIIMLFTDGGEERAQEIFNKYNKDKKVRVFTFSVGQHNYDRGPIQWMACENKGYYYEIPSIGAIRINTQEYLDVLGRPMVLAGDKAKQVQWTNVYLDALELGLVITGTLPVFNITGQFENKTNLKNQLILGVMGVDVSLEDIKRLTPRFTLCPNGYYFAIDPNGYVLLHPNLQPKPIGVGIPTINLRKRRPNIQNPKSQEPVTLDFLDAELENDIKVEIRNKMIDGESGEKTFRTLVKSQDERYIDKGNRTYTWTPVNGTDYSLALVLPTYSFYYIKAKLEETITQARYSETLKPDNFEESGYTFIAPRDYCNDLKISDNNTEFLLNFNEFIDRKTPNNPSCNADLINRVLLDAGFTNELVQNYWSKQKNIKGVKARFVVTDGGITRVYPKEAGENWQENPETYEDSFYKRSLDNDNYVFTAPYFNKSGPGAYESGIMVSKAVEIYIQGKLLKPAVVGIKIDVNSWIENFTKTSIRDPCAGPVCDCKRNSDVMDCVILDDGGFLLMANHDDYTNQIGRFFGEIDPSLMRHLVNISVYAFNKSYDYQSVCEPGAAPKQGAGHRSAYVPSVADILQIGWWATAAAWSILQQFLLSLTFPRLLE
T1 sequence (P54289 957-1103 partner limits assumed): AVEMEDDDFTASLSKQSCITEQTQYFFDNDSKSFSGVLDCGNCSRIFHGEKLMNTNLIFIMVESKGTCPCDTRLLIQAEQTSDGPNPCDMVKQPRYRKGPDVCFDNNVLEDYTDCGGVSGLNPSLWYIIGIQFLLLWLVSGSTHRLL
Description: Measurement of N-type Ca^2+ Channel Blocking Potencies of Compounds in IMR32 Cells Using the Fluorescent Ca^2+ Indicator Indo-1
IMR-32 cells are a human tumoral cell line of neural origin. […] Calcium flux into these cells may be induced by stimulation with elevated potassium concentrations. The L-channel component of calcium flux may be blocked by adding 5 μM nitrendipine. The remaining component of calcium entry into the IMR-32 cells is due to calcium flux through N-type calcium channels. Intracellular calcium concentrations are measured using the fluorescent calcium indicator Indo-1. The effect of drug concentration on calcium uptake is studied.
The IMR-32 cell line was obtained from the American Type Culture Collection (Rockville, Md.). Cells were grown in Eagle's Minimum Essential Medium with Earle's salts supplemented with 10% fetal bovine serum, 2 mM L-Gln and antibiotic/antimicotic mixture (Gibco). At approximately 80% confluency, differentiation was induced by the addition of 1 mM dibutyryl cAMP and 2.5 μM bromodeoxyuridine to the medium. After 7 to 13 days of differentiation, cells were detached using 0.5 mM EDTA and loaded with 5 μM Indo-1 acetoxymethyl ester (Molecular Probes, Eugene, Oreg.) at […] for 45 minutes. Loaded cells were washed twice, resuspended (˜10^7 cells/mL) in assay buffer (10 mM HEPES/Tris pH 7.4 in Hank's Balanced Salt Solution without bicarbonate or phenol red containing 0.5% bovine serum albumin) and kept on ice until use. Fluorescence measurements were carried out in a Photon Technology International (PTI, South Brunswick, N.J.) Model RF-F3004 spectrofluorometer with dual emission monochromators using excitation at 350 nm and emission at 400 and 490 nm. The instrument was equipped with a thermostated cuvette holder with stirring capabilities as well as with a computer-controlled pump that allowed for reagent addition during measurement. Instrument control and data collection was done by PTI's OSCAR software running on an IBM compatible computer. Different concentrations of the test compounds (60 μL in dimethyl sulfoxide) were added to 5.94 mL of assay buffer containing approximately 3×10^6 loaded cells, and 5 μM Nitrendipine (in 30 μL EtOH) to block L-type Ca^2+ channels. Samples were incubated for 10 minutes at 30° C. and then aliquoted into three 10×10 mm disposable acrylic cuvettes. Emission signals at 400 and 490 nm were acquired from each cuvette at 30° C. for 50 seconds. At 20 seconds after the start of reading, cells were depolarized by the addition of 160 μL of stimulation solution (1M KCl, 68 mM CaCl2) to the cuvette via the computer-controlled pump. Ratio of dual emission signals (400 nm/490 nm), which is proportional to intracellular Ca^2+ concentration, was plotted against time, and the difference between maximal response after stimulation and basal value (before stimulation) was determined. Values obtained in this way were plotted as a function of drug concentration. IC50 values of test compounds were calculated by fitting a 4-parameter logistic function to the data using the least squares method.

DBA/2 mice = experiment: Audiogenic seizure model in DBA/2 mice; type: in vivo; settings: for protection: 30 mg/kg, 15 minutes posttreatment time
Description: Audiogenic Seizure Model in DBA/2 Mice
Compounds of the present invention were dissolved in water using 10% (weight/volume) Emulphor (GAF Corp., Wayne, N.J.) surfactant. Substances were administered by intravenous injection into the retro-orbital venous sinus. All testing was performed 15 minutes or 45 minutes after drug injection. All the male mice, 3 to 4 weeks old, were obtained from Jackson Laboratories, Bar Harbour, Me. Immediately before anticonvulsant testing, mice were placed upon a wire mesh, 4 inches square suspended from a steel rod. […] Any mouse falling from the wire mesh was scored as ataxic.
Mice were placed into an enclosed acrylic plastic chamber (21 cm height, approximately 30 cm diameter) with a high-frequency speaker (4 cm diameter) in the center of the top lid. An audio signal generator (Protek model B-810) was used to produce a continuous sinusoidal tone that was swept linearly in frequency between 8 kHz and 16 kHz once each 10 msec. The average sound pressure level (SPL) during stimulation was approximately 100 dB at the floor of the chamber. Mice were placed within the chamber and allowed to acclimatize for 1 minute. DBA/2 mice in the vehicle-treated group responded to the sound stimulus (applied until tonic extension occurred, or for a maximum of 60 seconds) with a characteristic seizure sequence consisting of wild running followed by clonic seizures, and later by tonic extension, and finally by respiratory arrest and death in 80% or more of the mice. In vehicle-treated mice, the entire sequence of seizures to respiratory arrest lasts approximately 15 to 20 seconds.
The incidence of all the seizure phases in the drug-treated and vehicle-treated mice was recorded, and the occurrence of tonic seizures were used for calculating anticonvulsant ED values by probit analysis. Mice were used only once for testing at each time and dose point.

[1] = 10 mg/kg IV, 15 minutes post treatment
[2] = 30 mg/kg IV, 15 minutes post treatment
[3] = 30 mg/kg IV, 45 minutes post treatment
[4] = 10 mg/kg IV, 15 minutes post treatment, dihydrochloride
[5] = 10 mg/kg IV, 45 minutes post treatment, dihydrochloride

IC50 (N-type Ca2+ channel): 1100 nM
Structure (SMILES): CCN(CC)C[C@H](Cc1ccc(OCc2ccccc2)cc1)NC(=O)[C@H](CC(C)C)NC(=O)N1CCCCCC1 [Example 6, (S,S)-Azepane-1-carboxylic acid {1-[2-(4-benzyloxy-phenyl)-1-diethylaminomethyl-ethylcarbamoyl]-3-methyl-butyl}-amide]

IC50 (N-type Ca2+ channel): 190 nM
Structure (SMILES): CC(C)C[C@@H](CN[C@@H](Cc1ccc(OCc2ccccc2)cc1)C(=O)NC(C)(C)C)NC(=O)N1CCCCCC1 (relative stereo) [Example 2, [S-(R*,R*)]Azepane-1-carboxylic acid (1-{[2-(4-benzyloxy-phenyl)-1-tert-butylcarbamoyl-ethylamino]-methyl}-3-methyl-butyl)-amide dihydrochloride salt]
Number of Mice Protected from Tonic Convulsions / number of mice tested (DBA/2 mice; [1]): 1/5
Number of Mice Protected from Tonic Convulsions / number of mice tested (DBA/2 mice; [2]): 5/5
Number of Mice Protected from Tonic Convulsions / number of mice tested (DBA/2 mice; [3]): 1/5
protection (DBA/2 mice): 100%

IC50 (N-type Ca2+ channel): 1200 nM
Structure (SMILES): CC(C)CC(N)CN[C@@H](Cc1ccc(OCc2ccccc2)cc1)C(=O)NC(C)(C)C (single isomer, unassigned) [Example 7, dihydrochloride]
Number of Mice Protected from Tonic Convulsions / number of mice tested (DBA/2 mice; [4]): 2/5
Number of Mice Protected from Tonic Convulsions / number of mice tested (DBA/2 mice; [5]): 1/5

IC50 (N-type Ca2+ channel): 1000 nM
Structure (SMILES): CC(C)CC(N)CN[C@@H](Cc1ccc(OCc2ccccc2)cc1)C(=O)NC(C)(C)C (single isomer, unassigned) [Example 8, 2-(2-Amino-4-methyl-pentylamino)-3-(4-benzyloxy-phenyl)-N-tert-butyl-propionamide dihydrochloride]
Number of Mice Protected from Tonic Convulsions / number of mice tested (DBA/2 mice; [4]): 0/5
Number of Mice Protected from Tonic Convulsions / number of mice tested (DBA/2 mice; [5]): 0/5

IC50 (N-type Ca2+ channel): 1200 nM
Structure (SMILES): CC(C)C[C@H](NC(=O)N1CCCCCC1)C(=O)N[C@@H](Cc1ccc(OCc2ccccc2)cc1)CN1CCOCC1 (relative stereo) [Example 4, [S-(R*,R*)]-Azepane-1-carboxylic acid {1-[2-(4-benzyloxy-phenyl) -1-morpholin-4-ylmethyl-ethylcarbamoyl]-3-methyl-butyl}-amide]

IC50 (N-type Ca2+ channel): 1100 nM
Structure (SMILES): CC(C)C[C@H](NC(=O)N1CCCCCC1)C(=O)N[C@H](CNC(C)(C)C)Cc1ccc(OCc2ccccc2)cc1 (relative stereo) [Example 5, [S-(R*,R*)]Azepane-1-carboxylic acid {1-[2-(4-benzyloxy-phenyl)-1-(tert-butylamino-methyl)-ethylcarbamoyl]-3-methyl-butyl}-amide trifloroacetate salt]

Structure (SMILES): CC(C)C[C@H](NC(=O)N1CCCCCC1)C(=O)N[C@H](COC(C)(C)C)Cc1ccc(OCc2ccccc2)cc1 (relative stereo) [Example 1, [S-(R*,R*)]-Azepane-1-carboxylic acid {1-[2-(4-benzyloxy-phenyl)-1-tert-butoxymethyl-ethylcarbamoyl]-3-methyl-butyl}-amide]
IC50 (N-type Ca2+ channel): 210 nM
Number of Mice Protected from Tonic Convulsions / number of mice tested (DBA/2 mice; [1]): 1/5
Number of Mice Protected from Tonic Convulsions / number of mice tested (DBA/2 mice; [2]): 4/5
Number of Mice Protected from Tonic Convulsions / number of mice tested (DBA/2 mice; [3]): 2/5
protection (DBA/2 mice): 80%

IMR32 % @ 1 μM (N-type Ca2+ channel; 1 μM compound, 5 μM nitrendipine): 6% @ 1 μM
IMR32 % @ 10 μM (N-type Ca2+ channel; 10 μM compound, 5 μM nitrendipine): 48% @ 10 μM
melting point: 113 to 114 °C
Structure (SMILES): CC(C)C[C@@H](C(=O)N[C@@H](Cc1ccc(OCc2ccccc2)cc1)CN1CCOCC1)N(C)C (relative stereo) [Example 3, [S-(R*,R*)]-2-Dimethylamino-4-methyl-pentanoic acid [2-(4-benzyloxy-phenyl)-1-morpholin-4-ylmethyl-ethyl]-amide]
